Series [1] can be described thus: MTT cytotoxicity assay, panel statement over the five cancer cell lines. The class given is cell-based, human. The following applies: human.
Series [2] concerns five human cancer cell lines. The series is described as above. As to conditions: for selectivity index compared to the Beas-2B cell line: cancer cell lines versus Beas-2B. Format: cell-based.
The conditions of series [3]: from bulbs of Z. candida; cited from earlier work.
Where [4] appears, read: comparison in words, Table S1 not available.

≈ marks a conversion by molar mass, not a printed value. Read-outs that look alike come from different tables or passages of the source.

As to `Cn1c(=O)c2cc3c(cc2c2ccccc21)OCO3` [Compound 11, N-methylcrinasiadine], the IC50 at 48 h in series [1] is greater than 10 µM.

Molecule `c1ccc2c(c1)ncc1cc3c(cc12)OCO3` [Compound 12, trisphaeridine] gave an IC50 at 48 h in series [1] greater than 10 µM.

Consider `O[C@H]1[C@H]2c3cc4c(cc3CN3CCC(=C[C@@H]1O)[C@H]23)OCO4` [Compound 14, lycorine], for which the “selectivity index compared to the Beas-2B cell line” value (shortened to “selectivity index”) in series [2] is on record as no more than 10. In addition, the “cytotoxicity compared with positive control cis-platin” value in series [2] (setting [4]) is listed as “more potent cytotoxicity than one of the positive controls (cis-platin)”. For the same molecule, the IC50 at 48 h in series [1] lay within 0.81 to 13 µM.

Molecule `CO[C@@H]1C=C[C@@]23c4cc5c(cc4CO[C@]2(O)CN(C)[C@H]3C1)OCO5` [Compound 4, (+)-tazettine] came in with an IC50 at 48 h in series [1] greater than 10 µM.

As to `C/C=C/C=C/C(=O)N1C[C@H](C)NC[C@H]1C` [Compound 15, nigragillin], in series [1], the IC50 at 48 h was greater than 10 µM.

For `CO[C@H]1C=C[C@@]23c4cc5c(cc4CN(C)[C@@H]2C(=O)N(C)[C@H]3C1)OCO5` [Compound 5, N-methyl-5,6-dihydroplicane], the concentration for half-maximal inhibition (IC50) at 48 h in series [1] was greater than 10 µM.

For `CCOC(=O)CCn1c(=O)c2cc3c(cc2c2ccccc21)OCO3` [Compound 7, N-ethoxycarbonylethylcrinasiadine], the IC50 at 48 h in series [1] is greater than 10 µM.

Consider `CO[C@@H]1C=C[C@@]23c4cc5c(cc4C(=O)O[C@H]2CN(C)[C@H]3C1)OCO5` [Compound 3, 3-epimacronine], for which the concentration for half-maximal inhibition (IC50) at 48 h in series [1] is greater than 10 µM.

In series [1], `CCOC(=O)CCCn1c(=O)c2cc3c(cc2c2ccccc21)OCO3` [Compound 8, N-ethoxycarbonylpropylcrinasiadine] had a concentration for half-maximal inhibition (IC50) at 48 h greater than 10 µM.

The molecule `CC(C)CCn1c(=O)c2cc3c(cc2c2ccccc21)OCO3` [Compound 10, N-isopentylcrinasiadine] gave an IC50 at 48 h in series [1] greater than 10 µM.

Turning to `O=c1c2cc3c(cc2c2ccccc2n1CCc1ccccc1)OCO3` [Compound 9, N-phenethylcrinasiadine], in series [2], the “cytotoxicity compared with positive control cis-platin” value was “more potent cytotoxicity than one of the positive controls (cis-platin)” and the “selectivity index” value is no more than 10. The molecule further yielded an IC50 at 48 h in series [1] of 0.81 to 13 µM.

As for `CO[C@@H]1C=C[C@@]23c4cc5c(cc4CN(C[C@@H]2O)[C@H]3C1)OCO5` [Compound 2, haemanthamin], the “selectivity index” value in series [2] is recorded as no more than 10. Moreover, the “cytotoxicity compared with positive control cis-platin” value in series [2] (setting [4]) is listed as “more potent cytotoxicity than one of the positive controls (cis-platin)”. The molecule further yielded an IC50 at 48 h in series [1] of 0.81 to 13 µM.

`CN1Cc2cc3c(cc2-c2ccccc21)OCO3` [Compound 13, 5,6-dihydrobicolorine] displayed an IC50 at 48 h in series [1] greater than 10 µM.

As to `COc1cc2c(c(OC)c1OC)[C@@H](OC)O[C@@H]1CC=C3CCN(C)[C@H]3[C@H]21` [Compound 6, O-methylnerinine], the IC50 at 48 h in series [1] is greater than 10 µM.

For the molecule `CO[C@@H]1C=C[C@@]23c4cc5c(cc4C(O)[N+](C)(C[C@@H]2O)[C@H]3C1)OCO5.[Cl-]` (stereo partly drawn) [Compound 1, N-methylhaemanthidine chloride], the “selectivity index” value in series [2] is recorded as no more than 10. Besides, in series [2] (setting [4]), the “cytotoxicity compared with positive control cis-platin” value is “more potent cytotoxicity than one of the positive controls (cis-platin)”. Also, in series [1], the IC50 at 48 h was in the range of 0.81 to 13 µM.

With `O=C1N[C@H]2[C@H](O)[C@H](O)[C@@H](O)C[C@@H]2c2cc3c(c(O)c21)OCO3` (relative stereo) [trans-dihydronarciclasine], the “IC50 as cytostatic agent” value in series [3] is 3.2 ng/mL (≈ 0.0103 µM).

These data come from article PMC3580115 (Journal of natural products, 2012).
